Publication PMC6214909, “An asparagine/glycine switch governs product specificity of human N-terminal methyltransferase NTMT2” (Communications Biology, 2018)

Experiments:
NTMT1 = assay: MALDI-MS methyltransferase activity assay, NTMT1; format: biochemical, human; details: 2 μM NTMT1, 10 μM peptide, 200 μM SAM, 25 mM Tris–HCl pH 7.5, 50 mM KCl, 37 °C, overnight
Procedure: (§1) A mixture (36 μL) of 2 μM enzyme (NTMT1 or NTMT2), 25 mM Tris–HCl pH 7.5, 50 mM KCl and 200 μM SAM was incubated at 37 °C for 5 min. 4 μL of 100 μM peptide substrate (final concentration 10 μM) was then added to initiate the reaction. The reaction was incubated overnight and then stopped with quenching solution (20 mM NH4H2PO4, 0.4% (v/v) TFA in 1:1 acetonitrile/water). Reaction mixtures were analyzed with an Applied Biosystems Voyager matrix-assisted laser desorption/ionization time-of-flight mass spectrometer. Processing of all spectra results in Data Explorer included application of a noise filter (correlation factor of 1.0) and a baseline correction. Areas of the monoisotopic peaks for all relevant species were combined to obtain a total area for each sample. The fraction of each methylation state was calculated by summing the areas of all the monoisotopic peaks for that state ([M + H]^+, [M + Na]^+, [M + K]^+, [M – H + 2Na]^+, [M – H + 2 K]^+, and [M – H + Na + K]^+) and then dividing by the total area.

NTMT2 = target: T1, NTMT2 (Homo sapiens, UniProt Q5VVY1); assay: MALDI-MS methyltransferase activity assay, NTMT2; format: biochemical; details: 2 μM NTMT2, 10 μM peptide, 200 μM SAM, 25 mM Tris–HCl pH 7.5, 50 mM KCl, 37 °C, overnight
T1 construct: DNA encoding human NTMT2 (residues 58–278) was amplified by PCR; SUMO (His8-SUMO of the pET28-MKH8SUMO vector, with TEV site) (N, cleaved yes); made in house; host or cells: Escherichia coli BL21 (DE3)
T1 sequence (Q5VVY1 58-278): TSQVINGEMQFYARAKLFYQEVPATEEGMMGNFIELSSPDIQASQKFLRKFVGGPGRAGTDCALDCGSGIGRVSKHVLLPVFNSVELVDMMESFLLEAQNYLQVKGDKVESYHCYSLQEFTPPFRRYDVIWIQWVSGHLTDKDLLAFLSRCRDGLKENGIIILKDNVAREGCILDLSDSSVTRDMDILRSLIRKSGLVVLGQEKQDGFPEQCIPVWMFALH
Procedure: as §1

NTMT2-N89G mutant = assay: MALDI-MS methyltransferase activity assay, NTMT2-N89G mutant; format: biochemical, human; details: NTMT2-N89G under the same conditions (2 μM enzyme, 10 μM peptide, 200 μM SAM, pH 7.5, 37 °C, overnight)
Procedure: as §1

| Di-methylated fraction (NTMT1) [%] | Mono-methylated fraction (NTMT1) [%] | Trimethylated fraction (NTMT1) [%] | Unmethylated fraction (NTMT1) [%] | Di-methylated fraction (NTMT2) [%] | Mono-methylated fraction (NTMT2) [%] | Trimethylated fraction (NTMT2) [%] | Unmethylated fraction (NTMT2) [%] | Di-methylated fraction (NTMT2-N89G mutant) [%] | Mono-methylated fraction (NTMT2-N89G mutant) [%] | Trimethylated fraction (NTMT2-N89G mutant) [%] | Unmethylated fraction (NTMT2-N89G mutant) [%] | Substance |
| --- | --- | --- | --- | --- | --- | --- | --- | --- | --- | --- | --- | --- |
| 0.00 | 0.00 | 100.00 | 0.00 | 0.00 | 32.17 | 0.00 | 67.83 | 26.21 | 71.86 | 1.93 | 0.00 | APKRIA [synthetic XPKRIA hexapeptide substrate, X = A] |
| 44.61 | 27.87 | 0.00 | 27.51 | 0.00 | 25.20 | 0.00 | 74.80 | 0.00 | 63.38 | 0.00 | 36.62 | CPKRIA [synthetic XPKRIA hexapeptide substrate, X = C] |
| 0.00 | 9.37 | 0.00 | 90.64 | 0.00 | 0.00 | 0.00 | 100.00 | 0.00 | 0.00 | 0.00 | 100.00 | DPKRIA [synthetic XPKRIA hexapeptide substrate, X = D] |
| 0.00 | 10.70 | 0.00 | 89.30 | 0.00 | 0.00 | 0.00 | 100.00 | 0.00 | 0.00 | 0.00 | 100.00 | EPKRIA [synthetic XPKRIA hexapeptide substrate, X = E] |
| 97.34 | 0.00 | 2.66 | 0.00 | 0.00 | 50.22 | 0.00 | 49.78 | 0.00 | 100.00 | 0.00 | 0.00 | FPKRIA [synthetic XPKRIA hexapeptide substrate, X = F] |
| 0.00 | 0.00 | 100.00 | 0.00 | 20.14 | 15.31 | 27.94 | 36.61 | 19.61 | 6.64 | 60.27 | 13.49 | GPKRIA [synthetic XPKRIA hexapeptide substrate, X = G] |
| 100.00 | 0.00 | 0.00 | 0.00 | 0.00 | 39.05 | 0.00 | 60.95 | 1.61 | 98.39 | 0.00 | 0.00 | HPKRIA [synthetic XPKRIA hexapeptide substrate, X = H] |
| 20.10 | 43.34 | 0.00 | 36.56 | 0.00 | 0.00 | 0.00 | 100.00 | 0.00 | 5.08 | 0.00 | 94.92 | IPKRIA [synthetic XPKRIA hexapeptide substrate, X = I] |
| 96.14 | 0.00 | 3.86 | 0.00 | 0.00 | 5.19 | 0.00 | 94.81 | 0.00 | 20.40 | 0.00 | 79.60 | KPKRIA [synthetic XPKRIA hexapeptide substrate, X = K] |
| 70.78 | 26.28 | 2.94 | 0.00 | 0.00 | 3.16 | 0.00 | 96.84 | 0.00 | 18.14 | 0.00 | 81.86 | LPKRIA [synthetic XPKRIA hexapeptide substrate, X = L] |
| 91.26 | 0.00 | 8.74 | 0.00 | 0.00 | 41.45 | 0.00 | 58.55 | 0.00 | 100.00 | 0.00 | 0.00 | MPKRIA [synthetic XPKRIA hexapeptide substrate, X = M] |
| 100.00 | 0.00 | 0.00 | 0.00 | 0.00 | 0.00 | 0.00 | 100.00 | 0.00 | 21.58 | 0.00 |  | NPKRIA [synthetic XPKRIA hexapeptide substrate, X = N] |
| 100.00 | 0.00 | 0.00 | 0.00 | 10.19 | 38.00 | 0.00 | 51.81 | 4.45 | 65.75 | 0.00 |  | PPKRIA [synthetic XPKRIA hexapeptide substrate, X = P] |
| 100.00 | 0.00 | 0.00 | 0.00 | 0.00 | 0.00 | 0.00 | 100.00 | 0.00 | 32.39 | 0.00 | 67.61 | QPKRIA [synthetic XPKRIA hexapeptide substrate, X = Q] |
